Assay results taken from paper PMC7803792 (Slas Discovery, 2021).
Entries after “also recorded” stand apart in the source; their conditions may differ.

Columns and labels:
[1] = molecular target: T1, SARS-CoV-2 nsp10-nsp16 complex (Severe acute respiratory syndrome coronavirus 2, UniProt P0DTD1); details: FP, 30 nM FAM-RNA, maximum FP signal
[2] = molecular target: T1, SARS-CoV-2 nsp10-nsp16 complex; experiment: FP-based RNA displacement assay; type: binding; details: concentration for 50% displacement of 30 nM FAM-RNA from 0.5 µM nsp10-nsp16 complex
[3] = molecular target: SARS-CoV nsp10-nsp16 complex; details: cited from earlier work
[4] = molecular target: T1, SARS-CoV-2 nsp10-nsp16 complex; experiment: Isothermal titration calorimetry; type: binding

Row | Molecule | Kdisp (K displacement) [2] | further results
1 | 5′ N7-meGpppACCCCC-FAM 3′ |  | Bmax [1]: 270 ± 5 mP
2 | Nc1nc2c(ncn2[C@@H]2O[C@H](COP(=O)(O)OP(=O)(O)OP(=O)(O)OC[C@H]3O[C@@H](n4cnc5c(N)ncnc54)[C@H](O)[C@@H]3O)[C@@H](O)[C@H]2O)c(=O)[nH]1 [GpppA, G(5′)ppp(5′)A] | unable to displace; also recorded: did not disrupt; also recorded: no RNA displacement | 
3 | Nc1nc2c(ncn2[C@@H]2O[C@H](COP(=O)(O)OP(=O)(O)OP(=O)(O)OC[C@H]3O[C@@H](n4cnc5c(=O)[nH]c(N)nc54)[C@H](O)[C@@H]3O)[C@@H](O)[C@H]2O)c(=O)[nH]1 [GpppG, G(5′)ppp(5′)G] | unable to displace; also recorded: did not disrupt; also recorded: no RNA displacement | 
4 | Cn1c[n+]([C@@H]2O[C@H](COP(=O)(O)OP(=O)(O)OP(=O)(O)OC[C@H]3O[C@@H](n4cnc5c(N)ncnc54)[C@H](O)[C@@H]3O)[C@@H](O)[C@H]2O)c2nc(N)[nH]c(=O)c21 [N7-meGpppA, m7G(5′)ppp(5′)A] | 20 ± 6 µM | 
5 | Cn1c[n+]([C@@H]2O[C@H](COP(=O)(O)OP(=O)(O)OP(=O)(O)OC[C@H]3O[C@@H](n4cnc5c(=O)[nH]c(N)nc54)[C@H](O)[C@@H]3O)[C@@H](O)[C@H]2O)c2nc(N)[nH]c(=O)c21 [N7-meGpppG, m7G(5′)ppp(5′G] | 17 ± 3 µM | 
6 | C[S+](CC[C@H](N)C(=O)[O-])C[C@H]1O[C@@H](n2cnc3c(N)ncnc32)[C@H](O)[C@@H]1O (stereo partly drawn) [SAM, S-adenosyl-L-methionine] |  | Kd [3]: 5.59 ± 1.15 µM; Kd [4]: 3.4 ± 1.5 µM
